Laboratory results from PubChem BioAssay AID1963966 (Molecular Pharmacology Branch, DTP, NCI, 2024).

Tested on: 935938-334-R-J1-PDC spheroids with HUVEC/MSC, viability
Experiment: Anticancer human tumor 935938-334-R-J1-PDC patient-derived small intestine adenocarcinoma cell line growth inhibition [PI3K]
Conditions: for IC50: curve of first compound; for viability, T/C: stronger effect = lower value
How it was run: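 Viability of mixed-cell spheroids was determined after exposure to pairwise combinations, one partner being inavolisib, alpelisib, duvelisib or copanlisib. Highest tested concentration matched clinical Cmax where known and 10 microM where not, descending in half-log steps.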

[1] = second compound 0.0316 µM, first compound 0.0316 µM
[2] = second compound 0.0316 µM, first compound 0.1 µM
[3] = second compound 0.0316 µM, first compound 0.316 µM
[4] = second compound 0.0316 µM, first compound 1 µM
[5] = second compound 0.1 µM, first compound 0.0316 µM
[6] = second compound 0.1 µM, first compound 0.1 µM
[7] = second compound 0.1 µM, first compound 0.316 µM
[8] = second compound 0.1 µM, first compound 1 µM
[9] = second compound 0.316 µM, first compound 0.0316 µM
[10] = second compound 0.316 µM, first compound 0.1 µM
[11] = second compound 0.316 µM, first compound 0.316 µM
[12] = second compound 0.316 µM, first compound 1 µM
[13] = second compound 1 µM, first compound 0.0316 µM
[14] = second compound 1 µM, first compound 0.1 µM
[15] = second compound 1 µM, first compound 0.316 µM
[16] = second compound 1 µM, first compound 1 µM
[17] = second compound 3.16 µM, first compound 0.0316 µM
[18] = second compound 3.16 µM, first compound 0.1 µM
[19] = second compound 3.16 µM, first compound 0.316 µM
[20] = second compound 3.16 µM, first compound 1 µM
[21] = second compound 10 µM, first compound 0.0316 µM
[22] = second compound 10 µM, first compound 0.1 µM
[23] = second compound 10 µM, first compound 0.316 µM
[24] = second compound 10 µM, first compound 1 µM
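Note: compound exposure lasted seven days before viability was read.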
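Throughout, for viability, T/C: percent of vehicle DMSO treated spheroid viability so 100% = untreated.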

`CC(C)NCC(C(=O)N1CCN(c2ncnc3c2C(C)CC3O)CC1)c1ccc(Cl)cc1` (centres undefined) + Cc1nc(NC(=O)N2CCCC2C(N)=O)sc1-c1ccnc(C(C)(C)C(F)(F)F)c1 was tested, and the IC50 (second compound 0.0316 µM) was 2020 nM, the IC50 (second compound 0.1 µM) was over 10000 nM and the IC50 (second compound 0.316 µM) was 1840 nM. The IC50 (second compound 1 µM) was 1290 nM, the IC50 (second compound 3.16 µM) was 79.6 nM and the IC50 (second compound 10 µM) was 328 nM. The viability, T/C [1] was 80.2%, the viability, T/C [2] was 104% and the viability, T/C [3] was 75.9%. The viability, T/C [4] was 61.5%, the viability, T/C (second compound 0.0316 µM, first compound 3.16 µM) was 44.3% and the viability, T/C (second compound 0.0316 µM, first compound 10 µM) was 37.4%. The viability, T/C [5] was 89.2%, the viability, T/C [6] was 101% and the viability, T/C [7] was 82.5%. It also gave a viability, T/C [8] of 50.5%, a viability, T/C (second compound 0.1 µM, first compound 3.16 µM) of 61% and a viability, T/C (second compound 0.1 µM, first compound 10 µM) of 44.2%. It also gave a viability, T/C [9] of 94.7%, a viability, T/C [10] of 80.5% and a viability, T/C [11] of 86.2%. The viability, T/C [12] was 55.8%, the viability, T/C (second compound 0.316 µM, first compound 3.16 µM) was 49.4% and the viability, T/C (second compound 0.316 µM, first compound 10 µM) was 38.5%. For the same compound, the viability, T/C [13] was 70%, the viability, T/C [14] was 67.4% and the viability, T/C [15] was 72.8%. It also gave a viability, T/C [16] of 54.4%, a viability, T/C (second compound 1 µM, first compound 3.16 µM) of 33.6% and a viability, T/C (second compound 1 µM, first compound 10 µM) of 35.8%. The viability, T/C [17] was 74.9%, the viability, T/C [18] was 43% and the viability, T/C [19] was 46.5%. It also gave a viability, T/C [20] of 52.8%, a viability, T/C (second compound 3.16 µM, first compound 3.16 µM) of 39.9% and a viability, T/C (second compound 3.16 µM, first compound 10 µM) of 27.8%. The viability, T/C [21] was 47.9%, the viability, T/C [22] was 52.5% and the viability, T/C [23] was 51%. For the same compound, the viability, T/C [24] was 35.9%, the viability, T/C (second compound 10 µM, first compound 3.16 µM) was 39.3% and the viability, T/C (second compound 10 µM, first compound 10 µM) was 32.2%.
For `CCN1CCN(Cc2ccc(Nc3ncc(F)c(-c4cc(F)c5nc(C)n(C(C)C)c5c4)n3)nc2)CC1` + Cc1nc(NC(=O)N2CCCC2C(N)=O)sc1-c1ccnc(C(C)(C)C(F)(F)F)c1, the IC50 (second compound 0.0316 µM) was 148 nM, the IC50 (second compound 0.1 µM) was 43.2 nM and the IC50 (second compound 0.316 µM) was 55.5 nM. For the same compound, the IC50 (second compound 1 µM) was 18.8 nM, the IC50 (second compound 3.16 µM) was under 3.16 nM and the IC50 (second compound 10 µM) was under 3.16 nM. It also gave a viability, T/C (second compound 0.0316 µM, first compound 0.00316 µM) of 88.8%, a viability, T/C (second compound 0.0316 µM, first compound 0.01 µM) of 68.9% and a viability, T/C [1] of 64.3%. The viability, T/C [2] was 57.2%, the viability, T/C [3] was 43% and the viability, T/C [4] was 32.4%. The viability, T/C (second compound 0.1 µM, first compound 0.00316 µM) was 94.5%, the viability, T/C (second compound 0.1 µM, first compound 0.01 µM) was 92.2% and the viability, T/C [5] was 53.3%. The viability, T/C [6] was 45.6%, the viability, T/C [7] was 37.5% and the viability, T/C [8] was 35.4%. It also gave a viability, T/C (second compound 0.316 µM, first compound 0.00316 µM) of 86.6%, a viability, T/C (second compound 0.316 µM, first compound 0.01 µM) of 71.4% and a viability, T/C [9] of 52.4%. The viability, T/C [10] was 44.9%, the viability, T/C [11] was 41.2% and the viability, T/C [12] was 32.4%. It also gave a viability, T/C (second compound 1 µM, first compound 0.00316 µM) of 69.7%, a viability, T/C (second compound 1 µM, first compound 0.01 µM) of 59.2% and a viability, T/C [13] of 40.8%. It also gave a viability, T/C [14] of 37.7%, a viability, T/C [15] of 26.1% and a viability, T/C [16] of 28.3%. The viability, T/C (second compound 3.16 µM, first compound 0.00316 µM) was 41.5%, the viability, T/C (second compound 3.16 µM, first compound 0.01 µM) was 44.6% and the viability, T/C [17] was 42.6%. It also gave a viability, T/C [18] of 30.7%, a viability, T/C [19] of 25.7% and a viability, T/C [20] of 30.1%. It also gave a viability, T/C (second compound 10 µM, first compound 0.00316 µM) of 39.2%, a viability, T/C (second compound 10 µM, first compound 0.01 µM) of 44.7% and a viability, T/C [21] of 34.1%. The viability, T/C [22] was 26.2%, the viability, T/C [23] was 35% and the viability, T/C [24] was 28.5%.
